Consider seven cell lines from the supplement of paper PMC10307832.

Holding throughout (test): relative viability (nuclei count vs DMSO), 5 days (fraction); higher = more cells survive
Compound in experiment [1]: COc1cc2ncn(-c3cc(OCc4ccccc4C(F)(F)F)c(C(N)=O)s3)c2cc1OC
The procedure, abridged:
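A plate was accepted only when its control CV was below 25% and the cells had doubled at least once. Viability is defined from nuclear counts as treated wells divided by vehicle wells, with the median taken across plates. That median covers lung cancer cell lines grown in 1536-well plates, dosed by pinning at five √10-spaced library-drug concentrations, and counted in MetaXpress from 4× Hoechst images after 5 days.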

Compound in experiment [2]: COc1cc2ncn(-c3cc(OCc4ccccc4C(F)(F)F)c(C(N)=O)s3)c2cc1OC + CC1(C)CCC(c2ccc(Cl)cc2)=C(CN2CCN(c3ccc(C(=O)NS(=O)(=O)c4ccc(N[C@H](CCN5CCOCC5)CSc5ccccc5)c(S(=O)(=O)C(F)(F)F)c4)cc3)CC2)C1 [Navitoclax] (partner 0.5 µM)
In a few lines:
(§1)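 Values are medians from duplicate plates. Each reflects relative viability, defined as the nuclei count of treated wells over that of vehicle wells. Lung cancer cell lines in 1536-well plates were pin-tool dosed one day after seeding with one drug alone or with a fixed anchor-drug dose plus five library-drug doses (not always all listed) in √10 steps, then fixed, stained and imaged at 4× after 5 days.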

Compound in experiment [3]: COc1cc2ncn(-c3cc(OCc4ccccc4C(F)(F)F)c(C(N)=O)s3)c2cc1OC + Cc1cc(Nc2cc(N3CCN(C)CC3)nc(Sc3ccc(NC(=O)C4CC4)cc3)n2)n[nH]1 [Tozasertib] (partner 0.1 µM)
The procedure, abridged: as §1

Compound in experiment [4]: COc1cc2ncn(-c3cc(OCc4ccccc4C(F)(F)F)c(C(N)=O)s3)c2cc1OC + N=C(N)NC(=N)NCCc1ccccc1 [Phenformin] (partner 250 µM)
The procedure, abridged: as §1

In the case of LOU-NH91, the relative viability came out at 0.97 in experiment [1] (0.05 µM); 1.03 in experiment [1] (0.1581 µM); 0.801 in experiment [1] (0.5 µM); 0.455 in experiment [1] (1.581 µM); 0.531 in experiment [1] (5 µM); 0.715 in experiment [2] (first compound 0.05 µM). The relative viability in experiment [2] (first compound 0.1581 µM) came to 0.816; in experiment [2] (first compound 0.5 µM), 0.592; in experiment [2] (first compound 1.581 µM), 0.445; in experiment [2] (first compound 5 µM), 0.399; in experiment [3] (first compound 0.05 µM), 0.653; in experiment [3] (first compound 0.1581 µM) it was 0.641. Besides, the relative viability in experiment [3] (first compound 0.5 µM) stood at 0.399; in experiment [3] (first compound 1.581 µM), 0.29; in experiment [3] (first compound 5 µM), 0.31; in experiment [4] (first compound 0.05 µM), 0.734; in experiment [4] (first compound 0.1581 µM), 0.855; in experiment [4] (first compound 0.5 µM), 0.526. The relative viability in experiment [4] (first compound 1.581 µM) turned out to be 0.297; in experiment [4] (first compound 5 µM), 0.432.

As for LU99A, the relative viability in experiment [1] (0.05 µM) was 0.894; in experiment [1] (0.1581 µM) it was 1.08; in experiment [1] (0.5 µM), 0.681; in experiment [1] (1.581 µM), 0.253; in experiment [1] (5 µM), 0.203; in experiment [2] (first compound 0.05 µM), 0.87. Also, the relative viability in experiment [2] (first compound 0.1581 µM) is 0.786; in experiment [2] (first compound 0.5 µM), 0.434; in experiment [2] (first compound 1.581 µM) it was 0.169; in experiment [2] (first compound 5 µM) it was 0.124; in experiment [3] (first compound 0.05 µM), 0.224; in experiment [3] (first compound 0.1581 µM), 0.246. The relative viability stood at 0.247 in experiment [3] (first compound 0.5 µM); 0.241 in experiment [3] (first compound 1.581 µM); 0.246 in experiment [3] (first compound 5 µM); 1.01 in experiment [4] (first compound 0.05 µM); 0.865 in experiment [4] (first compound 0.1581 µM); 0.723 in experiment [4] (first compound 0.5 µM). Further, the relative viability in experiment [4] (first compound 1.581 µM) is 0.241; in experiment [4] (first compound 5 µM), 0.174.

Take LXF-289: the relative viability in experiment [1] (0.05 µM) came out at 0.977; in experiment [1] (0.1581 µM) it was 0.82; in experiment [1] (0.5 µM), 0.674; in experiment [1] (1.581 µM), 0.132; in experiment [1] (5 µM), 0.0998; in experiment [2] (first compound 0.05 µM), 0.852. The relative viability in experiment [2] (first compound 0.1581 µM) was 0.72; in experiment [2] (first compound 0.5 µM), 0.192; in experiment [2] (first compound 1.581 µM), 0.104; in experiment [2] (first compound 5 µM), 0.0566; in experiment [3] (first compound 0.05 µM), 0.192; in experiment [3] (first compound 0.1581 µM), 0.197. For the same cell line, the relative viability is 0.145 in experiment [3] (first compound 0.5 µM); 0.129 in experiment [3] (first compound 1.581 µM); 0.107 in experiment [3] (first compound 5 µM); 0.437 in experiment [4] (first compound 0.05 µM); 0.466 in experiment [4] (first compound 0.1581 µM); 0.256 in experiment [4] (first compound 0.5 µM). Also, the relative viability in experiment [4] (first compound 1.581 µM) is 0.0678; in experiment [4] (first compound 5 µM), 0.0402.

As to NCI-H23, the relative viability in experiment [1] (0.05 µM) came to 0.999; in experiment [1] (0.1581 µM), 0.635; in experiment [1] (0.5 µM) it was 0.348; in experiment [1] (1.581 µM), 0.151; in experiment [1] (5 µM), 0.115; in experiment [2] (first compound 0.05 µM), 0.913. The relative viability in experiment [2] (first compound 0.1581 µM) is 0.773; in experiment [2] (first compound 0.5 µM), 0.284; in experiment [2] (first compound 1.581 µM), 0.157; in experiment [2] (first compound 5 µM), 0.103; in experiment [3] (first compound 0.05 µM), 0.349; in experiment [3] (first compound 0.1581 µM) it was 0.269. Also, the relative viability is 0.218 in experiment [3] (first compound 0.5 µM); 0.166 in experiment [3] (first compound 1.581 µM); 0.13 in experiment [3] (first compound 5 µM); 0.798 in experiment [4] (first compound 0.05 µM); 0.821 in experiment [4] (first compound 0.1581 µM); 0.433 in experiment [4] (first compound 0.5 µM). Moreover, the values for the relative viability in experiment [4] (first compound 1.581 µM) and in experiment [4] (first compound 5 µM) were 0.129 and 0.125, respectively.

Regarding NCI-H322M, the relative viability in experiment [1] (0.05 µM) was found to be 0.982; in experiment [1] (0.1581 µM), 1.11; in experiment [1] (0.5 µM), 0.79; in experiment [1] (1.581 µM) it was 0.517; in experiment [1] (5 µM), 0.325; in experiment [2] (first compound 0.05 µM), 1.24. For the same cell line, the relative viability in experiment [2] (first compound 0.1581 µM) was 1.1; in experiment [2] (first compound 0.5 µM) it was 0.863; in experiment [2] (first compound 1.581 µM), 0.549; in experiment [2] (first compound 5 µM) it was 0.629; in experiment [3] (first compound 0.05 µM) it was 0.492; in experiment [3] (first compound 0.1581 µM), 0.475. Also, the relative viability in experiment [3] (first compound 0.5 µM) was 0.511; in experiment [3] (first compound 1.581 µM), 0.547; in experiment [3] (first compound 5 µM) it was 0.495; in experiment [4] (first compound 0.05 µM), 0.739; in experiment [4] (first compound 0.1581 µM) it was 0.869; in experiment [4] (first compound 0.5 µM), 0.631. In addition, the relative viability in experiment [4] (first compound 1.581 µM) was 0.363; in experiment [4] (first compound 5 µM), 0.303.

Take NCI-H441: the relative viability was determined as 0.846 in experiment [1] (0.05 µM); 0.683 in experiment [1] (0.1581 µM); 0.209 in experiment [1] (0.5 µM); 0.217 in experiment [1] (1.581 µM); 0.196 in experiment [1] (5 µM); 0.623 in experiment [2] (first compound 0.05 µM). Moreover, the relative viability in experiment [2] (first compound 0.1581 µM) is 0.405; in experiment [2] (first compound 0.5 µM), 0.233; in experiment [2] (first compound 1.581 µM), 0.151; in experiment [2] (first compound 5 µM), 0.164; in experiment [3] (first compound 0.05 µM), 0.71; in experiment [3] (first compound 0.1581 µM) it was 0.481. In addition, the relative viability in experiment [3] (first compound 0.5 µM) was 0.232; in experiment [3] (first compound 1.581 µM) it was 0.236; in experiment [3] (first compound 5 µM), 0.336; in experiment [4] (first compound 0.05 µM) it was 0.837; in experiment [4] (first compound 0.1581 µM), 0.636; in experiment [4] (first compound 0.5 µM), 0.196. Besides, the relative viability in experiment [4] (first compound 1.581 µM) is 0.196; in experiment [4] (first compound 5 µM), 0.227.

Take NCI-H460: the relative viability in experiment [1] (0.05 µM) amounted to 0.986; in experiment [1] (0.1581 µM), 0.946; in experiment [1] (0.5 µM), 0.603; in experiment [1] (1.581 µM), 0.0622; in experiment [1] (5 µM) it was 0.0847; in experiment [2] (first compound 0.05 µM), 1.01. Moreover, the relative viability in experiment [2] (first compound 0.1581 µM) was determined as 0.917; in experiment [2] (first compound 0.5 µM), 0.144; in experiment [2] (first compound 1.581 µM), 0.0132; in experiment [2] (first compound 5 µM) it was 0.0107; in experiment [3] (first compound 0.05 µM), 0.497; in experiment [3] (first compound 0.1581 µM) it was 0.294. Also, the relative viability in experiment [3] (first compound 0.5 µM) stood at 0.0449; in experiment [3] (first compound 1.581 µM), 0.0359; in experiment [3] (first compound 5 µM) it was 0.0337; in experiment [4] (first compound 0.05 µM), 0.476; in experiment [4] (first compound 0.1581 µM) it was 0.49; in experiment [4] (first compound 0.5 µM), 0.0454. The figures for the relative viability in experiment [4] (first compound 1.581 µM) and in experiment [4] (first compound 5 µM) were 0.0127 and 0.0125, respectively.
